PMC9645344, “Serotonin-releasing agents with reduced off-target effects” (Molecular Psychiatry, 2022)

Key:
human DAT = target: T1, human DAT (Homo sapiens, UniProt Q01959); assay: DAT uptake inhibition assay in HEK293 cells ([3H]MPP+); assay type: cell-based; conditions: for DAT/SERT ratio: (1/DAT IC50)/(1/SERT IC50), higher values indicate higher DAT-selectivity
T1 construct: expressed in transfected cells
Experimental: (§1) Human embryonic kidney 293 (HEK293) cells stably expressing the human isoforms of either DAT or SERT were maintained in Dulbecco’s Modified Eagle Medium (DMEM), supplemented with 10% fetal calf serum at a subconfluent state in humidified atmosphere (5% CO2, 37 °C).
(§2) Uptake inhibition assays were performed as described earlier. Briefly, HEK293 cells stably expressing human SERT or DAT were seeded onto poly- D-lysine (PDL) coated 96-well plates (40,000 cells well^−1) the day before an experiment. Prior to the uptake inhibition assay, DMEM was replaced with Krebs-HEPES buffer (KHB, 25 mM HEPES, 120 mM NaCl, 5 mM KCl, 1.2 mM CaCl2, 1.2 mM MgSO4, and 5 mM D-glucose, pH 7.3) and the cells were preincubated with test drugs for 5 min at room temperature. Uptake assays were initiated by adding 20 nM [^3H]MPP^+ to DAT cells or 100 nM [^3H]5-HT to SERT cells. After 180 s (DAT) or 60 s (SERT), the tritiated substrate was removed by aspiration. Cells were washed once with ice-cold KHB, then lysed in 1% sodium dodecyl sulfate (SDS) and subjected to liquid scintillation counting to quantify tritium accumulated in each sample. Non-specific uptake was determined in the presence of mazindol (1 µM) for DAT or paroxetine (1 µM) for SERT and subtracted throughout.

human SERT = target: T2, human SERT (Homo sapiens, UniProt P31645); assay: SERT uptake inhibition assay in HEK293 cells ([3H]5-HT); assay type: cell-based
T2 construct: expressed in transfected cells
Experimental: as §1, §2

VMATs = assay: VMAT uptake inhibition assay in PC12 cells; assay type: cell-based; conditions: all at 30 µM, relative to inhibition by 30 µM reserpine
Experimental: VMAT uptake inhibition assays were conducted as previously described, with some modifications. In brief, […] PC12 cells per well were seeded in 24-well plates the day before experimentation. The cells were pretreated with 100 nM nisoxetine and mazindol to inhibit non-specific binding. PC12 cells were then preincubated with 200 µM digitonin to permeabilize membranes and were kept at room temperature on a plate shaker at low velocity for 30 min. Cells were treated with test drugs and shaken for another 10 min. Tritiated substrate (0.05 µM [^3H]5-HT) was added, and the cells incubated on the plate shaker for 30 min. To terminate uptake, cells were transferred into 1.5 ml Eppendorf tubes, centrifuged at 5000 rpm for 5 min. The supernatant was aspirated, cells were washed with cold KHB, recentrifuged and lysed with 200 µl SDS. The solutions were transferred into vials containing 2 ml scintillation cocktail and radioactivity was determined via beta-scintillation counting (Perkin Elmer, Waltham, MA, USA). For analysis, inhibitory potency of test drugs was normalized to uptake inhibition caused by the potent VMAT inhibitor reserpine.

C57BL/6N mice = assay: Open-field test; assay type: in vivo; conditions: indicated doses (1, 5 and 10 mg kg-1) intraperitoneal, 1 h
Experimental: All in vivo experiments were performed in adult mice (>6 weeks old). For the photometry and microdialysis experiments, which were carried out in Florida, male C57BL/6J mice from The Jackson Laboratory (Bar Harbor, ME, USA) were group-housed in polycarbonate cages (GM500, Tecniplast, Buguggiate, Italy) with lights on from 7 a.m. to 7 p.m. Food and water were provided ad libitum. Photometry and microdialysis experiments were performed in accordance with a protocol approved by the Institutional Animal Care and Use Committee at Florida Atlantic University. For the behavioral experiments, which were carried out in Vienna, C57BL/6N mice from Charles River (Sulzfeld, Germany) were group-housed in polycarbonate cages with lights on from 7 a.m. to 7 p.m. Food and water were provided ad libitum. Behavioral experiments were performed in accordance with a protocol approved by the Austrian national ethical committee on animal care and use (Bundesministerium für Wissenschaft und Forschung: BMWFW-66.009/0016-WF/V/3b/2015). All animal procedures were conducted in agreement with the ARRIVE guidelines and the U.K. Animal (Scientific Procedures) Act, 1986, and associated guidelines, EU Directive 2010/63/EU for animal experiments. Mice were given at least 1 week to acclimate before being used in any experiments.
For behavioral assays, animals were assigned to treatment groups and injected with test drugs by an unblinded observer.
Mice were placed into an open field arena (27.3 × 27.3 × 27.3 cm) surrounded by infrared beams to track movements. The total distance traveled over 1 h was recorded using Activity Monitor (Med Associates Inc., St. Albans, VT, USA) and interpreted as a measure of the psychostimulant effects. Animal sample size was confirmed using a post hoc analysis of the achieved power using G*Power3.1 [29]. Using a significance level (α) of 0.05 and an effect size f = 1.92 and a sample size of 7.5 animals (5–10)/group we achieved the commonly accepted statistical power (1−β) of 0.8.

T1 sequence (Q01959 whole entry): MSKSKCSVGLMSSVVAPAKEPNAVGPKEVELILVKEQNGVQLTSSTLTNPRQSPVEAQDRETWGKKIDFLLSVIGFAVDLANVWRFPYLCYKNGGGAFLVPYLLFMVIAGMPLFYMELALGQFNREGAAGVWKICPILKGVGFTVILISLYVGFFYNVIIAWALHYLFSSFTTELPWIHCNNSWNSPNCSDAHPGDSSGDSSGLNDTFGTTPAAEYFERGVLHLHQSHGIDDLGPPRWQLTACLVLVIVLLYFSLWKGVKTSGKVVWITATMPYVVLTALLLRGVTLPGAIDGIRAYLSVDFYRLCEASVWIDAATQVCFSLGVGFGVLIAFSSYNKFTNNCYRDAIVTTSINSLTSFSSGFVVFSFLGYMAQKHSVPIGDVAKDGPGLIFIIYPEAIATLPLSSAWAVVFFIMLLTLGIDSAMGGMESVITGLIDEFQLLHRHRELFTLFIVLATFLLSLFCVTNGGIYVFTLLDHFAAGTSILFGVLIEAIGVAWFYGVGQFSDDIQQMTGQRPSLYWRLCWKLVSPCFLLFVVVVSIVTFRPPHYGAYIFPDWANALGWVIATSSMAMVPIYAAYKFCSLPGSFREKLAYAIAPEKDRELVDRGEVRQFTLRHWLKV
T2 sequence (P31645 whole entry): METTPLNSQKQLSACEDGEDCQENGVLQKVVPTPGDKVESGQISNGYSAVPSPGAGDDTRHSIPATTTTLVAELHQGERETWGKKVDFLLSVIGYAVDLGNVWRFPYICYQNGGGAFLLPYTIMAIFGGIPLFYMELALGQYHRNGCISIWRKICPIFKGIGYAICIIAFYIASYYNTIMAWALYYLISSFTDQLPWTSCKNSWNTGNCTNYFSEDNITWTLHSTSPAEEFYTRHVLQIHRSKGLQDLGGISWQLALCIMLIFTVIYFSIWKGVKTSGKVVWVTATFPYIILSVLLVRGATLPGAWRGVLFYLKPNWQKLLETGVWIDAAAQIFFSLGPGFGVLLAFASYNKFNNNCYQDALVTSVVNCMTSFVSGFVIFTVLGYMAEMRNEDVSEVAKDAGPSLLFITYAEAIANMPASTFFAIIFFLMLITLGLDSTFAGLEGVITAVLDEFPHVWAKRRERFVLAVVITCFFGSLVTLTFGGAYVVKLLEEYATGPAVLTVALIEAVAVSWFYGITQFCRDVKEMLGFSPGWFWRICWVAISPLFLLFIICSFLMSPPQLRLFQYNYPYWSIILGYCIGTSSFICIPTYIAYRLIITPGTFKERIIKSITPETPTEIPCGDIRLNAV

## Cc1ccc(C(=O)[C@H](C)N)cc1 [S-4-MC, 4-methylcathinone]
Human DAT
  IC50: 6.65 µM
  DAT/SERT ratio: 1.9
Human SERT
  IC50: 12.6 µM
VMATs
  inhibition of VMAT-mediated transport compared to MDMA: significantly less effective
C57BL/6N mice
  horizontal locomotor activity (total distance traveled) in the open field test: did not differ from vehicle

## CN[C@@H](C)C(=O)c1ccc(C(F)(F)F)cc1 [S-4-TFMMC, 4-trifluoromethyl-N-methylcathinone]
Human DAT
  IC50: 190 µM
  DAT/SERT ratio: 0.05
Human SERT
  IC50: 10.2 µM
VMATs
  inhibition of VMAT-mediated transport compared to MDMA: significantly less effective
C57BL/6N mice
  horizontal locomotor activity (total distance traveled) in the open field test: did not differ from vehicle
